Measured values as given in patent US20220175931A1, “OSMOTIC PRESSURE REGULATOR FOR PERITONEAL DIALYSATE CONTAINING D-ALLOSE AND/OR D-ALLULOSE” (NATIONAL UNIVERSITY CORPORATION KAGAWA UNIVERSITY, priority 2019, published 2022).
Values after ≈ are worked out from the molar mass of the structure shown. “Also recorded” adds a separate entry of the source. Like-named read-outs stand apart in the source and are kept apart here.

Columns and labels:
Staphylococcus aureus = test: MIC test, agar plate dilution method; format: cell-based, Staphylococcus aureus subsp. (MSSA)
Procedure: (§1) In accordance with the agar plate dilution method of the Japanese Society of Chemotherapy (1981), the minimum inhibitory concentration of a sample was determined.
(§2) Agar plates containing a sample at predetermined concentrations were smeared with a test bacterial suspension and were incubated, and then the minimum concentration at which bacterial growth was inhibited was determined as the minimum inhibitory concentration.
(§3) A 10-fold diluted solution of a sample was prepared with purified water and was added to an agar medium at a 1/10 volume.
(§4) From the upper limit concentration, the concentration was determined by serial 2-fold dilution to about 100 μg/ml.
(§5) (1) A 70% solution was prepared (14 g was diluted in a 20-ml measuring flask).
(§6) (2) The 70% solution was diluted by 2-fold dilution. Seven to eight steps.
(§7) (3) A 1/9 volume of each solution was added to an agar medium, and the mixture was poured in a petri dish and solidified (the sample concentration was 7% or more in the agar).
(§8) A liquid culture medium containing bacteria was incubated for 16 to 20 hours, and a prepared culture medium having a bacterial concentration of about 10^6/ml was used.

E. coli = test: MIC test, agar plate dilution method; format: cell-based, Escherichia coli
Procedure: as §1, §2, §3, §4, §5, §6, §7, §8

Corynebacterium = test: MIC test, agar plate dilution method; format: cell-based, Corynebacterium striatum
Procedure: as §1, §2, §3, §4, §5, §6, §7, §8

Enterococci = test: MIC test, agar plate dilution method; format: cell-based, Enterococcus faecalis
Procedure: as §1, §2, §3, §4, §5, §6, §7, §8

MRSA = test: MIC test, agar plate dilution method; format: cell-based, Staphylococcus aureus (MRSA)
Procedure: as §1, §2, §3, §4, §5, §6, §7, §8

Pseudomonas aeruginosa = test: MIC test, agar plate dilution method; format: cell-based
Procedure: as §1, §2, §3, §4, §5, §6, §7, §8

[1] = test system: Staphylococcus epidermidis; test: MIC test, agar plate dilution method; format: cell-based
Procedure: as §1, §2, §3, §4, §5, §6, §7, §8

test bacteria = test: MIC test, summary statements for the test bacteria as a whole; format: cell-based
Procedure: as §1, §2
Drug concentration 128 μg/ml grown bacteria A+ B− C−
Drug concentration 64 μg/ml grown bacteria A+ B+ C−
Drug concentration 32 μg/ml grown bacteria A+ B+ C+

male SD rats = test: Blood glucose level after intraperitoneal administration of D-allulose dialysate, normal rats, Test Example 3; format: in vivo, rat; conditions: PDF-based, vs control group
Text: The number of dialysis patients due to end-stage renal failure has been increasing; diabetic nephropathy is the main basic disease of end-stage renal failure; peritoneal dialysis patients can work during the day and has high QOL; peritoneal dialysis uses an osmotic pressure difference by glucose to remove water and toxins; and glucose in a peritoneal dialysate is absorbed through the peritoneum into the body to increase the blood glucose level, and this may worsen prognosis of a dialysis patient with diabetes. Considering the above circumstances, Kagawa University is only the organization capable of producing all rare sugars in the world and can research the rare sugar optimum for an intended dialysate.
The test example of D-allulose includes a substitution example and an addition example. In the substitution example, D-allose in FIG. 7 was substituted with D-allulose.
To male SD rats, a control solution as a solution in which a peritoneal dialysis fluid (PDF) was mixed with glucose, a 10% substitution solution as a solution in which 10% (by weight) of glucose to be mixed was substituted with D-allulose, or a 10% load solution as a solution in which D-allulose was added to the control solution in an amount corresponding to 10% by weight of glucose was intraperitoneally administered in the same volume, and blood glucose levels were determined over time.

[2] = test system: diabetic model rats (SDT fatty rats); test: Blood glucose level after intraperitoneal administration of peritoneal dialysate, diabetic model rats, Test Example 1; format: in vivo, rat
Procedure: (§9) As shown in the protocol in FIG. 4, 12- to 13-week-old male SDT fatty rats (a weight of 360 to 460 g) as diabetic model rats were fasted for 24 hours, then the weights and fasting blood glucose levels were determined, and the rats were randomly separated into two groups. As the administration solutions, a solution containing only glucose at a concentration of 4%, a solution having a sugar concentration of 4% in which D-allose was contained at 10% and glucose was contained at 90% were prepared, and each osmotic pressure of the two solutions was determined.
(§10) The diabetic model rats had more weights and higher fasting blood glucose levels than those of the normal rats. Blood samples were difficult to collect from the tails of the diabetic rats and thus were collected from the jugular vein, and blood glucose levels were determined by using the same blood glucose meter as above. The model rats had diabetes, and thus the blood glucose level increase was slow as compared with the normal rats.

normal rats (SD rats) [3] = test: Blood glucose level after intraperitoneal administration of peritoneal dialysate, normal rat models, Test Example 1; format: in vivo
Procedure: As shown in the protocol in FIG. 1, normal rats (6-week-old male SD rats, a weight of 155 to 170 g/body) were fasted for 24 hours, then the weights and fasting blood glucose levels were determined, and the rats were randomly separated into four groups.
As the administration solutions, a solution containing only glucose at a concentration of 4%, a solution having a sugar concentration of 4% in which D-allose was contained at 5% and glucose was contained at 95%, a solution having a sugar concentration of 4% in which D-allose was contained at 10% and glucose was contained at 90%, and a solution having a sugar concentration of 4% in which D-allose was contained at 25% were prepared, and each osmotic pressure of the four solutions was determined.
(§11) For the normal rats, blood samples were collected from the tail veins, and the blood glucose (blood sugar) levels were determined by using a commercially available blood glucose meter.
The results were subjected to Tukey-Kramer test by using an analysis software, JMP, and no significant difference was observed.

[4] = test system: diabetic model rats (SDT fatty rats); test: Blood glucose level after intraperitoneal administration of PDF-based dialysate, diabetic model rats, Test Example 2; format: in vivo, rat; conditions: PDF-based solutions
Procedure: As shown in the protocol in FIG. 9, 35- to 42-week-old male SDT fatty rats (a weight of 380 to 490 g) as diabetic model rats were fasted for 24 hours, then the weights and fasting blood glucose levels were determined, and the rats were randomly separated into two groups. As the administration solutions, the original solution was changed to PDF, and a solution containing only glucose as the sugar at a concentration of 4%, a solution having a sugar concentration of 4% in which D-allose was contained at 10% and glucose was contained at 90% were prepared, and each osmotic pressure of the two solutions was determined.
FIG. 10 show the test result of blood glucose level of the two groups of a group of the solution containing only glucose at a concentration of 4% and a group of the solution having a sugar concentration of 4% in which D-allose was contained at 10% and glucose was contained at 90%.
as §10, with “vein, and the blood glucose” for “vein, and blood glucose”

normal rats (SD rats) [5] = test: Blood glucose level after intraperitoneal administration of PDF-based dialysate, normal rat models, Test Example 2; format: in vivo; conditions: PDF-based solutions
Procedure: Next, a peritoneal dialysis fluid (PDF) was prepared, solutions containing glucose in a constant total amount of (0.432 g) were prepared, and D-allose was added to the solution at a predetermined ratio to give the following two peritoneal dialysates having a sugar concentration of 4% by weight and an osmotic pressure of 500 mOsm/L.
as §9, with “7, normal rats (6-week-old” for “4, 12- to 13-week-old”, “SD rats, a” for “SDT fatty rats (a”, “155” for “360”, “175 g/body)” for “460 g) as diabetic model rats”, “4% and” for “4%,”, “pressure” for “pressure of the two solutions”
as §11
FIG. 8 show the test result of blood glucose level of the two groups of a group of the solution containing only glucose at a concentration of 4% and a group of the solution having a sugar concentration of 4% in which D-allose was contained at 10% and glucose was contained at 90%.

[6] = Escherichia coli, read-out: MIC
[7] = Enterococcus faecalis, read-out: MIC
[8] = Staphylococcus aureus, read-out: MIC
[9] = summary of results, drug concentration 128, 64, 32 μg/ml, bacterium not named
[10] = intraperitoneal, 0, 2, 4, and 6 hours

Row | Compound | MIC (Staphylococcus aureus; read-out: MIC) [mg/mL] | MIC (E. coli; [6]) [mg/mL] | MIC (Corynebacterium; read-out: MIC) [mg/mL] | MIC (Enterococci; [7]) [mg/mL] | MIC (MRSA; [8]) [mg/mL] | MIC (Pseudomonas aeruginosa; read-out: MIC) [mg/mL] | MIC ([1]; read-out: MIC) [mg/mL] | MIC (Staphylococcus aureus) [mg/mL] | MIC (E. coli) [mg/mL] | MIC (test bacteria; [9]) [mg/mL] | MIC (Corynebacterium) [mg/mL] | MIC (Enterococci) [mg/mL] | MIC (MRSA) [mg/mL] | MIC (Pseudomonas aeruginosa) [mg/mL] | MIC [1] [mg/mL] | other results
1 | O=C[C@H](O)[C@@H](O)[C@H](O)[C@H](O)CO [Sample 1), D-glucose] | > 70 | > 70 | > 70 | > 70 | > 70 | > 70 | > 70 |  |  |  |  |  |  |  |  | 
2 | O=C(CO)[C@@H](O)[C@H](O)[C@H](O)CO [Sample 2), D-Fructose] | > 70 | > 70 | > 70 | > 70 | > 70 | > 70 | > 70 |  |  |  |  |  |  |  |  | 
3 | O=C(CO)[C@H](O)[C@H](O)[C@H](O)CO [Sample 3), D-allulose] |  |  |  |  |  |  |  | >70 | >70 | > 0.128 | >70 | >70 | >70 | >70 | >70 | blood glucose level increase (BS) (male SD rats): significantly suppressed
4 | O=C(CO)[C@@H](O)[C@@H](O)[C@@H](O)CO [Sample 4), L-allulose] |  |  |  |  |  |  |  | >70 | >70 | 0.128 (≈ 0.71 mM) | >70 | >70 | >70 | >70 | >70 | 
5 | O=C[C@H](O)[C@H](O)[C@H](O)[C@H](O)CO [Sample 5), D-allose] | > 70 | > 70 | > 70 | > 70 | > 70 | > 70 | 70 (≈ 389 mM) |  |  |  |  |  |  |  |  | blood glucose level increase [2, 10]: suppressed; AUC of blood glucose level ([2]; intraperitoneal, t-test): suppressive effect on the blood glucose level increase with a significant difference; AUC of blood glucose level (normal rats (SD rats) [3]; Tukey-Kramer test): significant declining trend; blood glucose level increase (time course) (normal rats (SD rats) [3]; fasted 24 hours, vs glucose-only solution): increase suppressive effect with a significant difference; also recorded: suppressed; MIC (test bacteria): 0.064 mg/mL (≈ 0.355 mM); blood glucose level increase [4, 10]: suppressed; AUC of blood glucose level ([4]; t-test): suppressive effect on the blood glucose level increase with a significant difference; blood glucose level increase (normal rats (SD rats) [5]): suppressed
